Like-named read-outs stand apart in the source and are kept apart here.
Tests used:
Assay type in all cases: cell-based
hKv1.3 = hKv1.3 (Homo sapiens, UniProt P22001); experiment: cell-based; conditions: Kv1.3 (IWQ) IC50 (nM, Avg)
[1] = tested on: IL-2 secretion from T cells in human whole blood; conditions: read-out: WB (IL-2) IC50 (nM, Avg)
[2] = tested on: IFN-g secretion from T cells in human whole blood
[3] = read-out: WB (IFNg) IC5- (nM, Avg)
[4] = read-out: WB (IFNg) IC50 (nM, Avg)

Chain of hKv1.3 (P22001 whole entry): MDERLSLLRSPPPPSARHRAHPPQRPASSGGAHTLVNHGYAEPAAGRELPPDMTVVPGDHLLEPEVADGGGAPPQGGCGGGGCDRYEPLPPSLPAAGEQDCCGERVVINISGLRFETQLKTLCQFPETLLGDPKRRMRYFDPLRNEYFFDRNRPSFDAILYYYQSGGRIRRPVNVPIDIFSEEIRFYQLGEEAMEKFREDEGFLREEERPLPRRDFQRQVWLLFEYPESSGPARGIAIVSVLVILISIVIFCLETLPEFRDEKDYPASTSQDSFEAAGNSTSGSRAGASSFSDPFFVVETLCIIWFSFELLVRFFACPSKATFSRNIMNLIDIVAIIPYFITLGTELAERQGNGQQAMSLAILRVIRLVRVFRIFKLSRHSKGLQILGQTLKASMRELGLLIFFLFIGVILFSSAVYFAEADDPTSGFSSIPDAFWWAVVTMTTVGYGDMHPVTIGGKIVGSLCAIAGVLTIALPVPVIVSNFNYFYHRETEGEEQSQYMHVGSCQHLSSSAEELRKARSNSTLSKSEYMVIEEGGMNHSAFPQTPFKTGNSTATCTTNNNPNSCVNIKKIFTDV

SMILES | IC50 (hKv1.3) | IC50 [1] | IC50 [2, 3] | IC50 [2, 4]
CC[C@H](C)[C@@H]1NC(=O)[C@@H](NC(=O)[C@H](CO)NC(=O)[C@@H](N)CCCNC(=N)N)CSSC[C@@H](C(=O)O)NC(=O)[C@H]([C@@H](C)O)NC(=O)CNC(=O)[C@@H]2CSSC[C@@H]3NC(=O)[C@H](CCC(N)=O)NC(=O)[C@H](Cc4ccccc4)NC(=O)[C@H](C)NC(=O)[C@H]([C@@H](C)O)NC(=O)[C@H](CSSC[C@H](NC(=O)[C@H](Cc4ccccc4)NC(=O)[C@H](CO)NC(=O)[C@H](CC(C)C)NC(=O)[C@H](CCCNC(=N)N)NC(=O)[C@H](Cc4ccc(O)cc4)NC(=O)[C@H](CCCCN)NC(=O)[C@H](CCSC)NC(=O)[C@H](CO)NC(=O)[C@H](Cc4c[nH]cn4)NC(=O)[C@H](CCCCN)NC3=O)C(=O)N[C@@H](CCCNC(=N)N)C(=O)N[C@@H](CCCCN)C(=O)N[C@@H]([C@@H](C)O)C(=O)N2)NC(=O)[C@H](CCCNC(=N)N)NC(=O)[C@H](CO)NC(=O)[C@H](CCCCN)NC(=O)[C@@H]2CCCN2C(=O)[C@H]([C@@H](C)CC)NC(=O)[C@H](CCC(=O)O)NC(=O)[C@H](CC(=O)O)NC1=O [[Glu6]ShK] | 0.17 nM | 0.073 nM | 0.109 nM | –
CC[C@H](C)[C@@H]1NC(=O)[C@@H](NC(=O)[C@H](CO)NC(=O)[C@@H](N)CCCNC(=N)N)CSSC[C@@H](C(=O)O)NC(=O)[C@H]([C@@H](C)O)NC(=O)CNC(=O)[C@@H]2CSSC[C@@H]3NC(=O)[C@H](CCC(N)=O)NC(=O)[C@H](Cc4ccccc4)NC(=O)[C@H](C)NC(=O)[C@H]([C@@H](C)O)NC(=O)[C@H](CSSC[C@H](NC(=O)[C@H](Cc4ccccc4)NC(=O)[C@H](CO)NC(=O)[C@H](CC(C)C)NC(=O)[C@H](CCCNC(=N)N)NC(=O)[C@H](Cc4ccc(O)cc4)NC(=O)[C@H](CCCCN)NC(=O)[C@H](CCSC)NC(=O)[C@H](CO)NC(=O)[C@H](Cc4c[nH]cn4)NC(=O)[C@H](CCCCN)NC3=O)C(=O)N[C@@H](CCCNC(=N)N)C(=O)N[C@@H](CCCCN)C(=O)N[C@@H](CCCNC(=N)N)C(=O)N2)NC(=O)[C@H](CCCNC(=N)N)NC(=O)[C@H](CO)NC(=O)[C@H](CCCCN)NC(=O)[C@@H]2CCCN2C(=O)[C@H]([C@@H](C)CC)NC(=O)[C@H]([C@@H](C)O)NC(=O)[C@H](CC(=O)O)NC1=O [[Arg31]ShK] | 3.3 nM | 12 nM | – | 54.8 nM
CC[C@H](C)[C@@H]1NC(=O)[C@@H](NC(=O)[C@H](CO)NC(=O)[C@@H](N)CCCNC(=N)N)CSSC[C@@H](C(=O)O)NC(=O)[C@H]([C@@H](C)O)NC(=O)CNC(=O)[C@@H]2CSSC[C@@H]3NC(=O)[C@H](CCC(N)=O)NC(=O)[C@H](Cc4ccccc4)NC(=O)[C@H](C)NC(=O)[C@H]([C@@H](C)O)NC(=O)[C@H](CSSC[C@H](NC(=O)[C@H](Cc4ccccc4)NC(=O)[C@H](CO)NC(=O)[C@H](CC(C)C)NC(=O)[C@H](CCCNC(=N)N)NC(=O)[C@H](Cc4ccc(O)cc4)NC(=O)[C@H](CCCCN)NC(=O)[C@H](CCSC)NC(=O)[C@H](CO)NC(=O)[C@H](Cc4c[nH]cn4)NC(=O)[C@H](CCCCN)NC3=O)C(=O)N[C@@H](CCCNC(=N)N)C(=O)N[C@@H](CCCCN)C(=O)N[C@@H](CCCCN)C(=O)N2)NC(=O)[C@H](CCCNC(=N)N)NC(=O)[C@H](CO)NC(=O)[C@H](CCCCN)NC(=O)[C@@H]2CCCN2C(=O)[C@H]([C@@H](C)CC)NC(=O)[C@H]([C@@H](C)O)NC(=O)[C@H](CC(=O)O)NC1=O [[Lys31]ShK] | 1.42 nM | 5.98 nM | – | 27.9 nM
CC[C@H](C)[C@@H]1NC(=O)[C@@H](NC(=O)[C@H](CO)NC(=O)[C@@H](N)CCCNC(=N)N)CSSC[C@@H](C(=O)O)NC(=O)[C@H]([C@@H](C)O)NC(=O)CNC(=O)[C@@H]2CSSC[C@@H]3NC(=O)[C@H](CCC(N)=O)NC(=O)[C@H](Cc4ccccc4)NC(=O)[C@H](C)NC(=O)[C@H]([C@@H](C)O)NC(=O)[C@H](CSSC[C@H](NC(=O)[C@H](Cc4ccccc4)NC(=O)[C@H](CO)NC(=O)[C@H](CC(C)C)NC(=O)[C@H](CCCNC(=N)N)NC(=O)[C@H](Cc4ccc(O)cc4)NC(=O)[C@H](CCCCN)NC(=O)[C@H](CCC(=O)O)NC(=O)[C@H](CO)NC(=O)[C@H](Cc4c[nH]cn4)NC(=O)[C@H](CCCCN)NC3=O)C(=O)N[C@@H](CCCNC(=N)N)C(=O)N[C@@H](CCCCN)C(=O)N[C@@H]([C@@H](C)O)C(=O)N2)NC(=O)[C@H](CCCNC(=N)N)NC(=O)[C@H](CO)NC(=O)[C@H](CCCCN)NC(=O)[C@@H]2CCCN2C(=O)[C@H]([C@@H](C)CC)NC(=O)[C@H]([C@@H](C)O)NC(=O)[C@H](CC(=O)O)NC1=O [[Glu21]ShK] | 3.33 nM | 18.5 nM | 28.1 nM | –
CC[C@H](C)[C@@H]1NC(=O)[C@@H](NC(=O)[C@H](CO)NC(=O)[C@@H](N)CCCNC(=N)N)CSSC[C@@H](C(=O)O)NC(=O)[C@H]([C@@H](C)O)NC(=O)CNC(=O)[C@@H]2CSSC[C@@H]3NC(=O)[C@H](CCC(N)=O)NC(=O)[C@H](Cc4ccccc4)NC(=O)[C@H](C)NC(=O)[C@H]([C@@H](C)O)NC(=O)[C@H](CSSC[C@H](NC(=O)[C@H](Cc4ccccc4)NC(=O)[C@H](CO)NC(=O)[C@H](CC(C)C)NC(=O)[C@H](CCCNC(=N)N)NC(=O)[C@H](C)NC(=O)[C@H](CCCCN)NC(=O)[C@H](CCSC)NC(=O)[C@H](CO)NC(=O)[C@H](Cc4c[nH]cn4)NC(=O)[C@H](CCCCN)NC3=O)C(=O)N[C@@H](CCCNC(=N)N)C(=O)N[C@@H](CCCCN)C(=O)N[C@@H]([C@@H](C)O)C(=O)N2)NC(=O)[C@H](CCCNC(=N)N)NC(=O)[C@H](CO)NC(=O)[C@H](CCCCN)NC(=O)[C@@H]2CCCN2C(=O)[C@H]([C@@H](C)CC)NC(=O)[C@H]([C@@H](C)O)NC(=O)[C@H](CC(=O)O)NC1=O [Tyr23(A)] | 0.621 nM | 3.75 nM | – | 5.44 nM
CC[C@H](C)[C@@H]1NC(=O)[C@@H](NC(=O)[C@H](CO)NC(=O)[C@@H](N)CCCNC(=N)N)CSSC[C@@H](C(=O)O)NC(=O)[C@H]([C@@H](C)O)NC(=O)CNC(=O)[C@@H]2CSSC[C@@H]3NC(=O)[C@H](CCC(N)=O)NC(=O)[C@H](Cc4ccccc4)NC(=O)[C@H](C)NC(=O)[C@H]([C@@H](C)O)NC(=O)[C@H](CSSC[C@H](NC(=O)[C@H](Cc4ccccc4)NC(=O)[C@H](CO)NC(=O)[C@H](CC(C)C)NC(=O)[C@H](C)NC(=O)[C@H](Cc4ccc(O)cc4)NC(=O)[C@H](CCCCN)NC(=O)[C@H](CCSC)NC(=O)[C@H](CO)NC(=O)[C@H](Cc4c[nH]cn4)NC(=O)[C@H](CCCCN)NC3=O)C(=O)N[C@@H](CCCNC(=N)N)C(=O)N[C@@H](CCCCN)C(=O)N[C@@H]([C@@H](C)O)C(=O)N2)NC(=O)[C@H](CCCNC(=N)N)NC(=O)[C@H](CO)NC(=O)[C@H](CCCCN)NC(=O)[C@@H]2CCCN2C(=O)[C@H]([C@@H](C)CC)NC(=O)[C@H]([C@@H](C)O)NC(=O)[C@H](CC(=O)O)NC1=O [[Ala24]ShK] | 0.062 nM | 0.043 nM | – | 0.216 nM
CC[C@H](C)[C@@H]1NC(=O)[C@@H](NC(=O)[C@H](CO)NC(=O)[C@@H](N)CCCNC(=N)N)CSSC[C@@H](C(=O)O)NC(=O)[C@H]([C@@H](C)O)NC(=O)CNC(=O)[C@@H]2CSSC[C@@H]3NC(=O)[C@H](CCC(N)=O)NC(=O)[C@H](Cc4ccccc4)NC(=O)[C@H](C)NC(=O)[C@H]([C@@H](C)O)NC(=O)[C@H](CSSC[C@H](NC(=O)[C@H](Cc4ccccc4)NC(=O)[C@H](CO)NC(=O)[C@H](CC(C)C)NC(=O)[C@H](CCCNC(=N)N)NC(=O)[C@H](Cc4ccc(O)cc4)NC(=O)[C@H](CCCCN)NC(=O)[C@H](CCSC)NC(=O)[C@H](CO)NC(=O)[C@H](Cc4c[nH]cn4)NC(=O)[C@H](CCCCN)NC3=O)C(=O)N[C@@H](Cc3cccc4ccccc34)C(=O)N[C@@H](CCCCN)C(=O)N[C@@H]([C@@H](C)O)C(=O)N2)NC(=O)[C@H](CCCNC(=N)N)NC(=O)[C@H](CO)NC(=O)[C@H](CCCCN)NC(=O)[C@@H]2CCCN2C(=O)[C@H]([C@@H](C)CC)NC(=O)[C@H]([C@@H](C)O)NC(=O)[C@H](CC(=O)O)NC1=O [[1-Nal29]ShK] | 3.3 nM | 4.72 nM | – | 8.08 nM
CC[C@H](C)[C@@H]1NC(=O)[C@H]([C@@H](C)O)NC(=O)[C@H](CC(=O)O)NC(=O)[C@H](CCC(=O)O)NC(=O)[C@@H](NC(=O)[C@H](CO)NC(=O)[C@@H](N)CCCNC(=N)N)CSSC[C@@H](C(N)=O)NC(=O)[C@H]([C@@H](C)O)NC(=O)CNC(=O)[C@@H]2CSSC[C@@H]3NC(=O)[C@H](CCCCN)NC(=O)[C@H](Cc4ccccc4)NC(=O)[C@H](C)NC(=O)[C@H]([C@@H](C)O)NC(=O)[C@H](CSSC[C@H](NC(=O)[C@H](Cc4ccccc4)NC(=O)[C@H](CO)NC(=O)[C@H](CC(C)C)NC(=O)[C@H](CCCNC(=N)N)NC(=O)[C@H](Cc4ccc(O)cc4)NC(=O)[C@H](CCCCN)NC(=O)[C@H](CCSC)NC(=O)[C@H](CO)NC(=O)[C@H](Cc4c[nH]cn4)NC(=O)[C@H](CCCCN)NC3=O)C(=O)N[C@@H](CCCNC(=N)N)C(=O)N[C@@H](CCCCN)C(=O)N[C@@H]([C@@H](C)O)C(=O)N2)NC(=O)[C@H](CCCNC(=N)N)NC(=O)[C@H](CO)NC(=O)[C@H](CCCCN)NC(=O)[C@@H]2CCCN2C1=O [[Glu4,Lys16]ShK-amide] | 0.127 nM | 0.071 nM | – | 0.068 nM
CC[C@H](C)[C@@H]1NC(=O)[C@@H](NC(=O)[C@H](CO)NC(=O)[C@@H](N)CCCNC(=N)N)CSSC[C@@H](C(=O)O)NC(=O)[C@H]([C@@H](C)O)NC(=O)CNC(=O)[C@@H]2CSSC[C@@H]3NC(=O)[C@H](CCC(N)=O)NC(=O)[C@H](Cc4ccccc4)NC(=O)[C@H](C)NC(=O)[C@H]([C@@H](C)O)NC(=O)[C@H](CSSC[C@H](NC(=O)[C@H](Cc4ccccc4)NC(=O)[C@H](CO)NC(=O)[C@H](CC(C)C)NC(=O)[C@H](CCCNC(=N)N)NC(=O)[C@H](Cc4ccc(O)cc4)NC(=O)[C@H](CCCCN)NC(=O)[C@H](CCSC)NC(=O)[C@H](CO)NC(=O)[C@H](Cc4c[nH]cn4)NC(=O)[C@H](CCCCN)NC3=O)C(=O)N[C@@H](CCCNC(=N)N)C(=O)N[C@@H](CCCCN)C(=O)N[C@@H]([C@@H](C)O)C(=O)N2)NC(=O)[C@H](CCCNC(=N)N)NC(=O)[C@H](CO)NC(=O)[C@H](CCCCN)NC(=O)[C@@H]2CCCN2C(=O)[C@H](CCCNC(=N)N)NC(=O)[C@H]([C@@H](C)O)NC(=O)[C@H](CC(=O)O)NC1=O [[Arg7]ShK] | 0.301 nM | 6.39 nM | – | 11.1 nM
